These results are taken from patent US20140066385A1, “METHOD FOR TREATING CANCER BY COMBINED USE OF DRUGS” (Astellas Pharma Inc., priority 2011, published 2014).

The test system of test [1] is human non-small cell lung cancer (Calu-6). Nature of the test: Example 2: FK330 with multicycle paclitaxel in Calu-6 tumor-bearing mice. It counts as in vivo, nude mice. Conditions: for tumor volume reduction ratio compared with the paclitaxel-only group: FK330 100 mg/kg bid p.o. continuously + paclitaxel 10 mg/kg/day i.v. multicycle, P<0.01. The method, then:
The dose of FK330 is expressed in weight including the hydrate. A paclitaxel injectable preparation (paclitaxel injection liquid, “Sawai”) was purchased from Sawai Pharmaceutical Co., Ltd., and was used as paclitaxel.
FK330 was suspended (20 mg/mL) in a 0.5% aqueous methyl cellulose solution (0.5% MC). Paclitaxel was prepared with physiological saline for injection (Otsuka Pharmaceutical Group) to a concentration of 1 mg/mL at the time of use.
Human lung cancer-derived Calu 6 (HTB-56) was obtained from American Type Culture Collection (VA, USA). The cells were cultured under the conditions of 37° C. and 5% CO2 by using RPMI1640 medium containing 10% heat-inactivated fetal bovine serum (FBS). The cells were harvested with trypsin and were suspended in PBS at 6×10^7 cells/mL, and the suspension was mixed with an equal amount of Matrigel (trade name) Basement Membrane Matrix (manufactured by Becton Dickinson Co., Bedford, Mass., USA).
Five-week old male nude mice (CAnN Cg-Foxn1nu/CrICrlj(nu/nu)) were purchased from Charles River Laboratories Japan, Inc. (Japan, Kanagawa). The animals were raised under specific pathogen-free (SPF) conditions throughout the test period by feeding standard feedstuff and drinking water. The cultured cells were subcutaneously inoculated into the dorsal region of the nude mice at a concentration of 3×10^6 cells/0.1 mL/mouse. Nude mice which had the tumor volumes (major axis×[minor axis]^2×0.52) ranging from 136.5 mm^3 to 299.0 mm^3 were assigned by using SAS to minimize the fluctuation in the tumor volume between the groups and within the group.
The first day of administration was designated as Day 1, and observation was made until Day 83. The respective groups (n=6) were treated as follows. FK330 was orally gavaged in an amount of 5 mL/kg, and paclitaxel was administered intravenously through the tail vein in an amount of 10 mL/kg. Paclitaxel was continuously administered from Day 1 to Day 7, and then was withdrawn for 23 days (1 cycle). In the administration of PTX in the second cycle and the third cycle, PTX was continuously administered for 6 days from Day 31 and from Day 60, respectively. […]
Every 2 to 4 days, the body weight and the tumor diameters, determined by using a digital caliper, were measured. The tumor volume was calculated from the calculation formula for ellipsoid volume of (major axis×[minor axis]^2×0.52).
The results are expressed as the mean value (Mean)±standard error (SEM). […] Using the actual measured values of the tumor volume at the end of the study, an unpaired statistical test (Student's t-test) of the difference between two groups was carried out between a single administration group and a combined use group. […]

Test [2] relates to ischemia/reperfusion injury in rat liver transplantation. Conditions: reported in Non-Patent Documents 3 and 4; cited from earlier work.

SMILES strings stand for the structures.

Take `O=C(/C=C/c1ccc(Cl)cc1)N[C@@H](Cc1ccccn1)C(=O)NCC(=O)N1CCC(Oc2cc(C(F)(F)F)ncn2)CC1` [FK330, N^2-[(2E)-3-(4-chlorophenyl)-2-propenoyl]-N-[2-oxo-2-(4-{[6-(trifluoromethyl)pyrimidin-4-yl]oxy}piperidin-1-yl)ethyl]-3-pyridin-2-yl-L-alaninamide]: the figures for the “tumor volume reduction ratio compared with the paclitaxel-only group” value in test [1] (Day 29), in test [1] (Day 60) and in test [1] (Day 83) were 57.6%, 86.1% and 87.6%, respectively. For the same molecule, in test [2], the “efficacy for ischemia/reperfusion injury in rat liver transplantation” value is “effective”.
Regarding `CC(=O)O[C@H]1C(=O)[C@@]2(C)[C@H]([C@H](OC(=O)c3ccccc3)[C@]3(O)C[C@H](OC(=O)[C@H](O)[C@@H](NC(=O)c4ccccc4)c4ccccc4)C(C)=C1C3(C)C)[C@]1(OC(C)=O)CO[C@@H]1C[C@@H]2O` [paclitaxel, reference compound], the “anti-tumor effect of paclitaxel as a result of multicycle administration” value in test [1] (paclitaxel 10 mg/kg/day i.v. alone, three cycles, until Day 83) is recorded as “tended to attenuate”.
